According to US10669272B2, “Substituted naphthyridinone compounds useful as T cell activators” (BRISTOL-MYERS SQUIBB COMPANY, priority 2018, dated 2020):
Like-named read-outs stand apart in the source and are kept apart here.

Columns and labels:
[1] = molecular target: T1, human DGKζ (Homo sapiens, UniProt Q13574); experiment: DGKζ LIPGLO assay (extruded liposome substrate), in vitro DGK inhibition; type: biochemical; conditions: read-out: DGKz LIPGLO IC50
T1 construct: TVMV protease cleavage site (C); Hexa-His (C); made in house; host or cells: Sf9 insect cells (baculovirus, Bac-to-Bac)

[2] = test system: Human venous whole blood; experiment: Human whole blood IFN-γ assay; type: cell-based; conditions: human whole blood, read-out: INFg Whole Blood Normalized Agonist EC50;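 further: blood from healthy donors exposed to compound for 1 h before stimulation with anti-CD3 and anti-CD28 at 1 µg/mL each, IFN-γ quantified in supernatant by AlphaLISA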
Description: Human Whole Blood IFN-γ Assay
Human venous whole blood (22.5 μL per well), obtained from healthy donors, was pre-treated with compounds for one hour at 37° C. in a humidified 95% air/5% CO2 incubator. The blood was stimulated with 2.5 μL anti-human CD3 and anti-CD28 mAb at a final concentration of 1 μg/mL each for 24 hours at 37° C. IFN-γ in the supernatants was measured using AlphLISA kit (Cat # AL217).

[3] = molecular target: T2, human DGKα (Homo sapiens, UniProt P23743); experiment: DGKα LIPGLO assay (extruded liposome substrate), in vitro DGK inhibition; type: biochemical; conditions: read-out: DGKa LIPGLO IC50
T2 construct: TVMV protease cleavage site (C); Hexa-His (C); made in house; host or cells: Sf9 insect cells (baculovirus, Bac-to-Bac)

[4] = normalized to 3 μM reference compound with anti-CD3 plus anti-CD28 as 100% activation
[5] = Homo sapiens, 24 h, anti-CD3 plus anti-CD28, 24 hours, 3 μM reference compound = 100% activation
[6] = Homo sapiens, 24 h, normalized to 3 μM reference compound with anti-CD3 plus anti-CD28 as 100% activation
[7] = anti-CD3 plus anti-CD28, 24 hours, 3 μM reference compound = 100% activation

T2 sequence (P23743 with tags, fused parts or gaps): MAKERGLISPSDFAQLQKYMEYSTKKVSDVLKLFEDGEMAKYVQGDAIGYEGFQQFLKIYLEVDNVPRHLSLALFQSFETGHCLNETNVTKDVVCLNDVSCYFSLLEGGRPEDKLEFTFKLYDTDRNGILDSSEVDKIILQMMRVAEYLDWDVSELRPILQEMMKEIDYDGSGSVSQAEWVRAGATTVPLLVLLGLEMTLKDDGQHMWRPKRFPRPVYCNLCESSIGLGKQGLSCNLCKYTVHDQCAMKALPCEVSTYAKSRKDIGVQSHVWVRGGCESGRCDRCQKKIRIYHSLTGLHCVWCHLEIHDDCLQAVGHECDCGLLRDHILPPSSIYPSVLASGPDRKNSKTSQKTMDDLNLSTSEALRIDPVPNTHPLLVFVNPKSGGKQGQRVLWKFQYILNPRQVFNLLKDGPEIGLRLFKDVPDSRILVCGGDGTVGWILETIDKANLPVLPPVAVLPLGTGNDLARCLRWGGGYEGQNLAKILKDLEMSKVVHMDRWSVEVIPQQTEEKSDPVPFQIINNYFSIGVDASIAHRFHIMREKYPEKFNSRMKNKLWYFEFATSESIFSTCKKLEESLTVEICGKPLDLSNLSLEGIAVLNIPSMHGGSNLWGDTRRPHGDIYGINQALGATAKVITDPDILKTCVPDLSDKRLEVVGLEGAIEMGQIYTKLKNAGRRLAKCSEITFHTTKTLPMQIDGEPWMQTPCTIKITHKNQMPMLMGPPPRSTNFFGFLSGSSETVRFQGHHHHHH
T1 sequence (Q13574 with tags, fused parts or gaps isoform Q13574-4): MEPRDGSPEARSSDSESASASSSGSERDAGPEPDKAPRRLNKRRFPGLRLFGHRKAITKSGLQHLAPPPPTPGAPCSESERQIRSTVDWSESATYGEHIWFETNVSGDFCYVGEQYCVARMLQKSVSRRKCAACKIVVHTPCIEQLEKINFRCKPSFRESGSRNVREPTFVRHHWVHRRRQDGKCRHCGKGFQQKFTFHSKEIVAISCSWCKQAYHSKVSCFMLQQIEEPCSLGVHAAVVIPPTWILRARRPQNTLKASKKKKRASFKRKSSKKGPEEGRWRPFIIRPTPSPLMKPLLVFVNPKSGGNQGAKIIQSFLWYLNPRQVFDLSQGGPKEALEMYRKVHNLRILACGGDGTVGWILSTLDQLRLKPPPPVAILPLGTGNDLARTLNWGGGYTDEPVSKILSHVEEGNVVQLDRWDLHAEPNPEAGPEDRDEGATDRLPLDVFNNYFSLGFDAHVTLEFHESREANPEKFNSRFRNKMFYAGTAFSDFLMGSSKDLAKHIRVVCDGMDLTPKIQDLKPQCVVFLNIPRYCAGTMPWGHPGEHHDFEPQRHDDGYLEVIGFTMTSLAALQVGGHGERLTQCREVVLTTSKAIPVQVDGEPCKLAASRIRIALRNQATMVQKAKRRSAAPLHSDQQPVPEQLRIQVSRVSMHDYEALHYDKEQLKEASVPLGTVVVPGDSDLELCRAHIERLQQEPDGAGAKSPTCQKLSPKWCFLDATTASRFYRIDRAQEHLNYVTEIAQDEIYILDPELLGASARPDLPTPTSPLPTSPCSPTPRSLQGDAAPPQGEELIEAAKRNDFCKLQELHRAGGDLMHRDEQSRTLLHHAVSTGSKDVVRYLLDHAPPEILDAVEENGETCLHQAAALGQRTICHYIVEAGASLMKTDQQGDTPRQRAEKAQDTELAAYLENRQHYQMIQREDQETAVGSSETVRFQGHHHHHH

Structure (SMILES) | IC50 ([1]; liposome (LIPGLO) assay) | EC50 [2, 4] | IC50 ([3]; liposome (LIPGLO) assay) | IC50 ([1]; DGKζ liposome (LIPGLO) assay) | EC50 [2, 5] | IC50 ([3]; DGKα liposome (LIPGLO) assay) | EC50 [2, 6] | EC50 [2, 7]
CC[C@@H]1CN(c2cc(=O)n(C)c3ccc(C#N)nc23)[C@@H](C)CN1C(C)c1ccc(C(F)(F)F)cc1F (single isomer, unassigned) [Example 1085] | 0.032 µM | 0.16 µM | 0.36 µM |  |  |  |  | 
C[C@@H]1CN(c2cc(=O)n(C)c3ccc(C#N)nc23)[C@@H](C)CN1C(c1ccc(F)cc1)c1nnnn1C(C)(C)C (single isomer, unassigned) [Example 770] |  |  |  | 1.7 µM | 8.5 µM | 21 µM |  | 
CC(c1ccc(OC(F)(F)F)cc1)N1C[C@H](C)N(c2cc(=O)n(C)c3ccc(C#N)nc23)C[C@H]1CN1CCOCC1 (single isomer, unassigned) [Example 1415] | 1.8 µM | 6.9 µM | 19 µM |  |  |  |  | 
C[C@H]1CN(C(c2ccc(F)cc2)c2ccon2)[C@H](CO)CN1c1cc(=O)n(C)c2ccc(C#N)nc12 (single isomer, unassigned) [Example 1391] | 2 µM | 0.7 µM | 0.15 µM |  |  |  |  | 
COC[C@@H]1CN(c2cc(=O)n(C)c3ccc(C#N)nc23)[C@@H](C)CN1C(c1ccc(F)cc1)c1ccc(C#N)cc1 (single isomer, unassigned) [Example 1157] | 0.7 µM |  | 4.2 µM |  |  |  | 0.27 µM | 
CC(c1ccc(Br)cc1)N1CCN(c2c(C#N)c(=O)n(C)c3ccc(C#N)nc23)C[C@H]1C (single isomer, unassigned) [Example 975] |  |  |  | 83 µM |  | 0.33 µM |  | 20 µM
CC(C)c1noc(C(c2ccc(F)cc2)N2C[C@H](C)N(c3cc(=O)n(C)c4ccc(C#N)nc34)C[C@H]2C)n1 (single isomer, unassigned) [Example 747] |  |  |  | 0.069 µM |  | 0.3 µM |  | 0.18 µM
CC[C@@H]1CN(c2cc(=O)n(C)c3ccc(C#N)nc23)[C@@H](C)CN1C(C)c1ccc(OC)cc1 (single isomer, unassigned) [Example 482] | 0.17 µM | 0.29 µM | 0.13 µM |  |  |  |  | 
C[C@@H]1CN(c2c(C#N)c(=O)n(C)c3ccc(C#N)nc23)[C@@H](C)CN1C(c1ccc(F)cc1)c1cc(C(C)(C)C)on1 (single isomer, unassigned) [Example 867] |  |  |  | 7.9 µM |  | > 250 µM |  | 20 µM
C[C@@H]1CN(c2cc(=O)n(C)c3ccc(C#N)nc23)[C@@H](C)CN1C(c1ccc(F)cc1)c1nc(C(C)(C)C)co1 (single isomer, unassigned) [Example 779] |  |  |  | 0.012 µM | 0.01 µM | 0.11 µM |  | 
C[C@@H]1CN(c2c(C#N)c(=O)n(C)c3ccc(C#N)nc23)CCN1C(c1ccc(Cl)cc1)c1ccc(Cl)cn1 (stereo partly drawn) [Example 930] |  |  |  | 1.3 µM | 1.3 µM | 0.64 µM |  | 
CCc1ccccc1C(c1ccc(F)cc1)N1C[C@H](C)N(c2c(C#N)c(=O)n(C)c3ccc(C#N)nc23)C[C@H]1C (single isomer, unassigned) [Example 810] |  |  |  | 23 µM |  | 240 µM |  | 20 µM
CCC(c1ccc(OC(C)C)cc1)N1C[C@H](C)N(c2cc(=O)n(C)c3ccc(C#N)nc23)C[C@H]1CC (single isomer, unassigned) [Example 1447] | 0.024 µM | 0.05 µM | 0.28 µM |  |  |  |  | 
Cc1ccc(C(c2ccc(C)cn2)N2C[C@H](C)N(c3cc(=O)n(C)c4ccc(C#N)nc34)C[C@H]2C)cc1 (single isomer, unassigned) [Example 454] | 0.54 µM |  | 0.23 µM |  |  |  | 0.47 µM | 
CC(c1ccc(OC(F)(F)F)c(F)c1)N1C[C@H](C)N(c2cc(=O)n(C)c3ccc(C#N)nc23)C[C@H]1C (single isomer, unassigned) [Example 1270] | 2.7 µM | 8 µM | 1.7 µM |  |  |  |  | 
C[C@@H]1CN(c2c(C#N)c(=O)n(C)c3ccc(C#N)nc23)CCN1Cc1cccc(F)c1 [Example 1005] |  |  |  | 7.7 µM | 20 µM | 0.87 µM |  | 
C[C@@H]1CN(c2cc(=O)n(C)c3ccc(C#N)nc23)[C@@H](C)CN1Cc1cccc2c1cnn2C [Example 475, 8-((2S,5R)-2,5-dimethyl-4-((1-methyl-1H-indazol-4-yl)methyl)piperazin-1-yl)-5-methyl-6-oxo-5,6-dihydro-1,5-naphthyridine-2-carbonitrile] | 2 µM |  | 16 µM |  |  |  | 20 µM | 
C[C@@H]1CN(c2cc(=O)n(C)c3ccc(C#N)nc23)[C@@H](C)CN1C(c1cccc(F)c1)c1cccc2c1OCCCO2 (single isomer, unassigned) [Example 445] | 0.42 µM |  | 40 µM |  |  |  | 2.6 µM | 
C[C@@H]1CN(c2c(C#N)c(=O)n(C)c3ccc(C#N)nc23)[C@@H](C)CN1C(c1ccccc1)c1cc(F)cc(F)c1 (single isomer, unassigned) [Example 813] |  |  |  | 3.7 µM |  | 85 µM |  | 20 µM
C[C@@H]1CN(c2cc(=O)n(C)c3ccc(C#N)nc23)[C@@H](C)CN1Cc1cc(-c2ccccc2)no1 [Example 1425] | 4.9 µM |  | 5.9 µM |  |  |  | 20 µM | 
C[C@@H]1CN(c2c(C#N)c(=O)n(C)c3ccc(C#N)nc23)CCN1C(c1ccc(F)cc1)c1cccc2c1OC(F)(F)O2 (single isomer, unassigned) [Example 940] |  |  |  | 7.2 µM |  | 25 µM |  | 2.2 µM
COC[C@@H]1CN(c2cc(=O)n(C)c3ccc(C#N)nc23)[C@@H](C)CN1C(C)c1ccc(F)cc1 (single isomer, unassigned) [Example 1159] | 0.13 µM |  | 0.36 µM |  |  |  | 0.3 µM | 
C[C@@H]1CN(c2c(C#N)c(=O)n(C)c3ccc(C#N)nc23)[C@@H](C)CN1C(c1cccc(F)c1)c1ccc(C(F)(F)F)cn1 (single isomer, unassigned) [Example 841] |  |  |  | 11 µM |  | 83 µM |  | 3.3 µM
CC[C@@H]1CN(c2cc(=O)n(C)c3ccc(C#N)nc23)[C@@H](C)CN1C(c1ccc(OC(F)(F)F)cc1)C1CC1 (stereo partly drawn) [Example 1190] | 5.9 µM |  | 2.3 µM |  |  |  | 1.2 µM | 
CC(c1ccc(F)cc1)N1CCN(c2c(C#N)c(=O)n(C)c3ccc(C#N)nc23)C[C@H]1C (single isomer, unassigned) [Example 959] |  |  |  | 5.9 µM |  | 2.4 µM |  | 5.4 µM
CC(c1ccc2c(c1)OC(F)(F)O2)N1C[C@H](C)N(c2cc(=O)n(C)c3ccc(C#N)nc23)C[C@H]1C (single isomer, unassigned) [Example 655] | 1.3 µM | 6.6 µM | 4.2 µM |  |  |  |  | 
CC(c1ccc(OC(F)F)cn1)N1C[C@H](C)N(c2cc(=O)n(C)c3ccc(C#N)nc23)C[C@H]1C (single isomer, unassigned) [Example 1225] | 1.2 µM | 7.7 µM | 0.15 µM |  |  |  |  | 
CC(c1ccc(OC(F)(F)F)cc1)N1C[C@H](C)N(c2cc(=O)n(C)c3ccc(C#N)nc23)C[C@H]1CC#N (single isomer, unassigned) [Example 1411] | 1.2 µM |  | 0.2 µM |  |  |  | 2.2 µM | 
Cc1ccc(C(c2ccc(C#N)cc2)N2C[C@H](C)N(c3c(F)c(=O)n(C)c4ccc(C#N)nc34)C[C@H]2C)cc1 (stereo partly drawn) [Example 322, 8-((2S,5R)-4-((4-cyanophenyl)(p-tolyl)methyl)-2,5-dimethylpiperazin-1-yl)-7-fluoro-5-methyl-6-oxo-5,6-dihydro-1,5-naphthyridine-2-carbonitrile] | 2.2 µM |  | 2.7 µM |  |  |  | 2.2 µM | 
